Results: patent US20120165319A1, “INHIBITORS OF INTERLEUKIN-1 BETA CONVERTING ENZYME” (VERTEX PHARMACEUTICALS INCORPORATED, priority 1995, published 2012)
Read-outs that look alike come from different tables or passages of the source.

Legend:
[1] = tested on: IL-1β production, LPS-challenged mice; test: In vivo acute assay for efficacy as anti-inflammatory agent: LPS-induced IL-1β production in mice; set-up: species or system mouse; conditions: LPS challenged mice, compound PO, 50 mg/kg; for inhibition at 50 mg/kg: Mus musculus, po, read-out: percent inhibition of IL-1β production
Experimental: In Vivo Acute Assay for Efficacy as Anti-Inflammatory Agent
LPS-Induced IL-1β Production.
Efficacy of 214e and 217e was evaluated in CD1 mice (n=6 per condition) challenged with LPS (20 mg/kg IP). […] Blood was collected seven hours after LPS challenge. Serum IL-1β levels were measure by ELISA. […] Similar results were obtained in a second experiment. […] However, a clear dose response was not apparent.
Compounds 214e and 217e (50 mg/kg) were also administered by oral gavage to assess absorption.
The efficacy of analogs of 214e were also evaluated in LPS challenged mice after IP administration (FIG. 9) and PO administration (FIG. 10).
[…] The protocol is described in Example 7.

[2] = tested on: IL-1β, human whole blood; test: Whole blood assay for IL-1β production; assay type: cell-based; conditions: Table 17, read-out: Whole human blood IC50
Summary of the method: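 IL-1β was quantified by ELISA in plasma diluted 1:200. The plasma came from EDTA-anticoagulated human whole blood incubated at 30 °C for 16-18 h with LPS (final 5.0 ng/ml) plus a saline serial dilution of compound. Controls were no-LPS, no-inhibitor and highest-vehicle.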

[3] = administered 0 h relative to time of LPS challenge
[4] = administered −2 h relative to time of LPS challenge
[5] = 0 h, administered 0 h relative to time of LPS challenge
[6] = 2 h, administered −2 h relative to time of LPS challenge

COc1ccc(C(=O)N[C@H]2CCC(=O)N3CCC[C@@H](C(=O)N[C@H]4CC(=O)OC4OCc4ccccc4)N3C2=O)cc1 (mixture of isomers) [Compound 213i, [1S,9S(2RS,3S)]9-[(4-Methoxybenzoyl)amino]-6,10-dioxo-1,2,3,4,7,8,9,10-octahydro-N-(2-Benzyloxy-5-oxotetrahydrofuran-3-yl)-6H-pyridazino[1,2-a][1,2]diazepine-1-carboxamide]
percent inhibition of IL-1β production [1, 3]: 62% | percent inhibition of IL-1β production [1, 4]: (−11) % | IC50 [2]: 1.1 µM

O=C1C[C@H](NC(=O)[C@@H]2CCCN3C(=O)CC[C@H](NC(=O)c4ccc(O)cc4)C(=O)N23)C(OCc2ccccc2)O1 (mixture of isomers) [Compound 213p, [1S,9S (2RS,3S)]N-(2-Benzyloxy-5-oxotetrahydrofuran-3-yl)-6,10-dioxo-9-(4-hydroxybenzoyl)amino-1,2,3,4,7,8,9,10-octahydro-6H-pyridazino[1,2-a][1,2]diazepine-1-carboxamide]
percent inhibition of IL-1β production [1, 3]: 29% | percent inhibition of IL-1β production [1, 4]: 21% | IC50 [2]: < 0.3 µM

O=C1C[C@H](NC(=O)[C@@H]2CCCN3C(=O)CC[C@H](NC(=O)c4cc5ccccc5[nH]4)C(=O)N23)C(OCc2ccccc2)O1 (mixture of isomers) [Compound 213q, [1S,9S(2RS,3S)]N-(2-Benzyloxy-5-oxotetrahydrofuran-3-yl)-6,10-dioxo-9-(indol-2-oylamino)-1,2,3,4,7,8,9,10-octahydro-6H-pyridazino[1,2-a][1,2]diazepine-1-carboxamide]
percent inhibition of IL-1β production [1, 3]: 91% | percent inhibition of IL-1β production [1, 4]: 17% | IC50 [2]: < 0.3 µM

Cc1ccccc1C(=O)N[C@H]1CCC(=O)N2CCC[C@@H](C(=O)N[C@H]3CC(=O)OC3OCc3ccccc3)N2C1=O (mixture of isomers) [Compound 213r, [1S,9S(2RS,3S)]N-(2-Benzyloxy-5-oxotetrahydrofuran-3-yl)-6,10-dioxo-1,2,3,4,7,8,9,10-octahydro-9-(2-toluoylamino)-6H-pyridazino[1,2-a][1,2]diazepine-1-carboxamide]
percent inhibition of IL-1β production [1, 3]: 37% | percent inhibition of IL-1β production [1, 4]: 59% | IC50 [2]: < 0.3 µM

O=C1C[C@H](NC(=O)[C@@H]2CCCN3C(=O)CC[C@H](NC(=O)c4nccc5ccccc45)C(=O)N23)C(OCc2ccccc2)O1 (mixture of isomers) [Compound 213y, [1S,9S(2RS,3S)]N-(2-Benzyloxy-5-oxotetrahydrofuran-3-yl)-6,10-dioxo-9-(isoquinolin-1-oylamino)-1,2,3,4,7,8,9,10-octahydro-6-H-pyridazino[1,2-a][1,2]diazepine-1-carboxamide]
percent inhibition of IL-1β production [1, 3]: 50% | percent inhibition of IL-1β production [1, 4]: 29% | IC50 [2]: 0.93 µM

CC(=O)OC1OC(=O)CC1NC(=O)[C@@H]1CCCN2C(=O)CC[C@H](NC(=O)c3ccccc3)C(=O)N12 (mixture of isomers) [Compound 2100h, [1S,9S(2RS,3RS)]9-Benzoylamino-6,10-dioxo-1,2,3,4,7,8,9,10-octahydro-N-(2-acetoxy-5-oxotetrahydrofuran-3-yl)-6H-pyridazino[1,2-a][1,2]diazepine-1-carboxamide]
inhibition at 50 mg/kg [1, 5]: 32% | inhibition at 50 mg/kg [1, 6]: 34% | IC50 ([2]; Homo sapiens): 2 µM

O=C1C[C@H](NC(=O)[C@@H]2CCCN3C(=O)CC[C@H](NC(=O)c4cc(Cl)c(O)c(Cl)c4)C(=O)N23)C(OCc2ccccc2)O1 (stereo partly drawn) [Compound 213k, [1S,9S(2RS,3S)]9-[(3,5-Dichloro-4-hydroxybenzoyl)amino]-6,10-dioxo-1,2,3,4,7,8,9,10-octahydro-N-(2-Benzyloxy-5-oxotetrahydrofuran-3-yl)-6H-pyridazino[1,2-a][1,2]diazepine-1-carboxamide]
inhibition at 50 mg/kg [1, 5]: 68% | inhibition at 50 mg/kg [1, 6]: 0% | IC50 ([2]; Homo sapiens): 2 µM

CC(=O)Nc1ccc(C(=O)N[C@H]2CCC(=O)N3CCC[C@@H](C(=O)N[C@H]4CC(=O)OC4OCc4ccccc4)N3C2=O)cc1Cl (stereo partly drawn) [Compound 213l, [1S,9S(2RS,3S)]9-[(3-Chloro-4-acetamidobenzoyl)amino]-6,10-dioxo-1,2,3,4,7,8,9,10-octahydro-N-(2-Benzyloxy-5-oxotetrahydrofuran-3-yl)-6H -pyridazino[1,2-a][1,2]diazepine-1-carboxamide]
inhibition at 50 mg/kg [1, 5]: 80% | inhibition at 50 mg/kg [1, 6]: -18% | IC50 ([2]; Homo sapiens): 2 µM

COc1c(Cl)cc(C(=O)N[C@H]2CCC(=O)N3CCC[C@@H](C(=O)N[C@H]4CC(=O)OC4OCc4ccccc4)N3C2=O)cc1Cl (stereo partly drawn) [Compound 213m, [1S,9S(2RS,3S)]9-[(3,5-Dichloro-4-methoxybenzoyl)amino]-6,10-dioxo-1,2,3,4,7,8,9,10-octahydro-N-(2-Benzyloxy-5-oxotetrahydrofuran-3-yl)-6H-pyridazino[1,2-a][1,2]diazepine-1-carboxamide]
inhibition at 50 mg/kg [1, 5]: 42% | inhibition at 50 mg/kg [1, 6]: 26% | IC50 ([2]; Homo sapiens): 2.5 µM

O=C1C[C@H](NC(=O)[C@@H]2CCCN3C(=O)CCN(NC(=O)c4ccc5c(c4)OCO5)C(=O)N23)C(OCc2ccccc2)O1 (stereo partly drawn) [Compound 264l, [4S(2RS,3S)]N-(2-Benzyloxy-5-oxotetrahydrofuran-3-yl)-6,10-dioxo-7-(3,4-methylenedioxybenzoylamino)-1,2,3,4,7,8,9,10-octahydro-6H-pyridazino[1,2-a][1,2,4]triazepine-4-carboxamide]
inhibition at 50 mg/kg [1, 5]: 23% | inhibition at 50 mg/kg [1, 6]: 0% | IC50 ([2]; Homo sapiens): 3 µM

CCOC1OC(=O)C[C@@H]1NC(=O)[C@@H]1CCCN2C(=O)CCN(NC(=O)c3ccc4c(c3)OCO4)C(=O)N12 (stereo partly drawn) [Compound 528, [4S(2RS,3S)]6,10-Dioxo-N-(2-ethoxy-5-oxotetrahydrofuran-3-yl)-7-(3,4-methylenedioxybenzoylamino)-1,2,3,4,7,8,9,10-octahydro-6H-pyridazino[1,2-a][1,2,4]triazepine-4-carboxamide]
inhibition at 50 mg/kg [1, 5]: 67% | inhibition at 50 mg/kg [1, 6]: 25% | IC50 ([2]; Homo sapiens): 2.2 µM

CCOC1OC(=O)C[C@@H]1NC(=O)[C@@H]1CCCN2C(=O)CC[C@H](NC(=O)c3ccc(N(C)C)cc3)C(=O)N12 (stereo partly drawn) [Compound 550f, [1S,9S(2RS,3S)]9-[(4-Dimethylaminobenzoyl)amino]-6,10-dioxo-1,2,3,4,7,8,9,10-octahydro-N-(2-ethoxy-5-oxotetrahydrofuran-3-yl)-6H-pyridazino[1,2-a][1,2]diazepine-1-carboxamide]
inhibition at 50 mg/kg [1, 5]: 50% | inhibition at 50 mg/kg [1, 6]: 0% | IC50 ([2]; Homo sapiens): 1.1 µM

CCOC1OC(=O)C[C@@H]1NC(=O)[C@@H]1CCCN2C(=O)CC[C@H](NC(=O)c3ccc(N)c(Cl)c3)C(=O)N12 (stereo partly drawn) [Compound 550h, [1S,9S(2RS,3S)]9-[(3-Chloro-4-aminobenzoyl)amino]-6,10-dioxo-1,2,3,4,7,8,9,10-octahydro-N-(2-ethoxy-5-oxotetrahydrofuran-3-yl)-6H-pyridazino[1,2-a][1,2]diazepine-1-carboxamide]
inhibition at 50 mg/kg [1, 5]: 73% | inhibition at 50 mg/kg [1, 6]: 55% | IC50 ([2]; Homo sapiens): 1.8 µM

CCOC1OC(=O)C[C@@H]1NC(=O)[C@@H]1CCCN2C(=O)CC[C@H](NC(=O)c3ccc(OC)cc3)C(=O)N12 (stereo partly drawn) [Compound 550i, [1S,9S(2RS,3S)]9-[(4-Methoxybenzoyl)amino]-6,10-dioxo-1,2,3,4,7,8,9,10-octahydro-N-(2-ethoxy-5-oxotetrahydrofuran-3-yl)-6H-pyridazino[1,2-a][1,2]diazepine-1-carboxamide]
inhibition at 50 mg/kg [1, 5]: 23% | inhibition at 50 mg/kg [1, 6]: -10% | IC50 ([2]; Homo sapiens): 1.4 µM

CCOC1OC(=O)C[C@@H]1NC(=O)[C@@H]1CCCN2C(=O)CC[C@H](NC(=O)c3cc(Cl)c(O)c(Cl)c3)C(=O)N12 (stereo partly drawn) [Compound 550k, [1S,9S(2RS,3S)]9-[(3,5-Dichloro-4-hydroxybenzoyl)amino]-6,10-dioxo-1,2,3,4,7,8,9,10-octahydro-N-(2-ethoxy-5-oxotetrahydrofuran-3-yl)-6H-pyridazino[1,2-a][1,2]diazepine-1-carboxamide]
inhibition at 50 mg/kg [1, 5]: 34% | inhibition at 50 mg/kg [1, 6]: 36% | IC50 ([2]; Homo sapiens): 3 µM

CCOC1OC(=O)C[C@@H]1NC(=O)[C@@H]1CCCN2C(=O)CC[C@H](NC(=O)c3ccc(NC(C)=O)c(Cl)c3)C(=O)N12 (stereo partly drawn) [Compound 550l, [1S,9S (2RS,3S)]9-[(3-Chloro-4-acetamidobenzoyl)amino]-6,10-dioxo-1,2,3,4,7,8,9,10-octahydro-N-(2-ethoxy-5-oxotetrahydrofuran-3-yl)-6H-pyridazino[1,2-a][1,2]diazepine-1-carboxamide]
inhibition at 50 mg/kg [1, 5]: 38% | inhibition at 50 mg/kg [1, 6]: 9% | IC50 ([2]; Homo sapiens): 0.75 µM

CCOC1OC(=O)C[C@@H]1NC(=O)[C@@H]1CCCN2C(=O)CC[C@H](NC(=O)c3cc(Cl)c(OC)c(Cl)c3)C(=O)N12 (stereo partly drawn) [Compound 550m, [1S,9S(2RS,3S)]9-[(3,5-Dichloro-4-methoxybenzoyl)amino]-6,10-dioxo-1,2,3,4,7,8,9,10-octahydro-N-(2-ethoxy-5-oxotetrahydrofuran-3-yl)-6H-pyridazino[1,2-a][1,2]diazepine-1-carboxamide]
inhibition at 50 mg/kg [1, 5]: 52% | inhibition at 50 mg/kg [1, 6]: 45% | IC50 ([2]; Homo sapiens): 2 µM
